Tested on: PKCδ
Assay: Immunofluorescence for PKCδ in HCEC monolayers
Format: cell-based, human
Conditions: PMA 1 μM; 15 minutes; scratched monolayers
Description: HCEC monolayers were grown to confluency and were scratched with a 10 μl pipette tip or left unscratched, and then the monolayers were treated for 15 minutes with (A-B) buffer, (C-D) PMA (1 μM), (E-F) 250 ng/ml CAP37, and (G-J) 500 ng/ml CAP37. Cells were stained for PKCδ (250 ng/ml; (A-H)), and PKCα (1 μg/ml; (I-J)) and detected using immunofluorescence (4 μg/ml, ALEXA FLUOR® 488 dye (Life Technologies Corp., Grand Island, N.Y.)). […] Scratched monolayers that were treated for 18 hours with CAP37 (250 ng/ml; (L)) or left untreated (K) were stained for PKCδ. […] Scale bars, 20 μm.
Immunofluorescence: HCECs and primary HCECs were cultured on Lab-Tek® II glass chamber slides (Nunc, Rochester, N.Y.) and starved overnight in basal media. For wounding studies, monolayers were scratched with a 10 μl pipette tip or left unscratched and treated with 1 μM phorbol 12-myristate 13-acetate (PMA, Sigma-Aldrich), rCAP37 (25-500 ng/ml), or basal KSFM (Gibco) for 15 minutes. After treatment, the cells were fixed in 4% (v/v) formaldehyde solution (Thermo, Rockford, Ill.) in PBS (Gibco) for 20 minutes at room temperature followed by permeabilization in 0.5% TRITON™-X 100 (Mallinckrodt, St. Louis, Mo.) in PBS for 10 minutes. Remaining formaldehyde was quenched with 0.05 M ammonium chloride (NH4Cl, Sigma-Aldrich, St. Louis, Mo.) in PBS for 10 minutes. […]

CCCCCCCCCCCCCC(=O)O[C@@H]1[C@@H](C)[C@@]2(O)[C@@H](C=C(CO)C[C@]3(O)C(=O)C(C)=C[C@@H]23)[C@@H]2C(C)(C)[C@]12OC(C)=O [PMA, phorbol 12-myristate 13-acetate, reference compound]
PKCδ staining, in words: increased staining

Reference: patent publication US11884710B2, “Peptide compounds and methods of use in wound healing” (priority 2013, dated 2024)
